From PubChem BioAssay AID248 (DTP/NCI, 2004)
Toxic doses and inconclusive results are not listed. No stated cut-off is given here; in the data, active means T/C of 150% or more; inactive means T/C below 125%.

Tested on: L1210 leukemia ip in BDF1 mice, survival T/C
Experiment: NCI In Vivo Anticancer Drug Screen. Data for tumor model L1210 Leukemia (intraperitoneal) in B6D2F1 (BDF1) mice
Settings: endpoint: mean survival time, higher = longer survival
In short: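 In this screen, tumor-bearing mice given compound are compared to those given vehicle, and their survival values are reported as a treated-to-control quotient.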

[1] = dose: 100.0 mg/kg/injection, schedule: Q04DX003 (ip), vehicle: saline
[2] = dose: 200.0 mg/kg/injection, schedule: Q04DX003 (ip), vehicle: saline
[3] = dose: 400.0 mg/kg/injection, schedule: Q04DX003 (ip), vehicle: saline
[4] = dose: 100.0 mg/kg/injection, schedule: Q01DX009 (ip), vehicle: Klucel (hydroxypropylcellulose) (HPC)
[5] = dose: 200.0 mg/kg/injection, schedule: Q01DX009 (ip), vehicle: Klucel (hydroxypropylcellulose) (HPC)
[6] = dose: 400.0 mg/kg/injection, schedule: Q01DX009 (ip), vehicle: Klucel (hydroxypropylcellulose) (HPC)
[7] = dose: 100.0 mg/kg/injection, schedule: Q04DX002 (ip), vehicle: saline with Tween-80
[8] = dose: 400.0 mg/kg/injection, schedule: Q04DX002 (ip), vehicle: saline with Tween-80
[9] = dose: 50.0 mg/kg/injection, schedule: Q01DX009 (ip), vehicle: Klucel (hydroxypropylcellulose) (HPC)
[10] = dose: 100.0 mg/kg/injection, schedule: Q01DX001 (ip), vehicle: saline
[11] = dose: 200.0 mg/kg/injection, schedule: Q01DX001 (ip), vehicle: saline
[12] = dose: 400.0 mg/kg/injection, schedule: Q01DX001 (ip), vehicle: saline
[13] = dose: 100.0 mg/kg/injection, schedule: Q04DX002 (ip), vehicle: Klucel (hydroxypropylcellulose) (HPC)
[14] = dose: 200.0 mg/kg/injection, schedule: Q04DX002 (ip), vehicle: Klucel (hydroxypropylcellulose) (HPC)
[15] = dose: 400.0 mg/kg/injection, schedule: Q04DX002 (ip), vehicle: Klucel (hydroxypropylcellulose) (HPC)

Measured: T/C

O=[N+]([O-])c1ccccc1C(=Nc1ccccc1)c1c(O)cc(O)cc1O
inactive: dose: 100.0 mg/kg/injection, schedule: Q01DX009 (ip), vehicle: acetone 94 % of control | [1] 96 % of control | dose: 200.0 mg/kg/injection, schedule: Q01DX009 (ip), vehicle: acetone 100 % of control | [2] 101 % of control | [3] 98 % of control

Cc1cccc2c(Cl)c3cccc(C)c3nc12
inactive: [4] 96 % of control | dose: 100.0 mg/kg/injection, schedule: Q04DX003 (ip), vehicle: other 95 % of control | [5] 93 % of control | dose: 200.0 mg/kg/injection, schedule: Q04DX003 (ip), vehicle: other 94 % of control | [6] 102 % of control | dose: 400.0 mg/kg/injection, schedule: Q04DX003 (ip), vehicle: other 97 % of control

Fc1ccc(N2CCNCC2)cc1
inactive: dose: 12.5 mg/kg/injection, schedule: Q01DX009 (ip), vehicle: saline with Tween-80 104 % of control | dose: 25.0 mg/kg/injection, schedule: Q01DX009 (ip), vehicle: saline with Tween-80 104 % of control | dose: 50.0 mg/kg/injection, schedule: Q01DX009 (ip), vehicle: saline with Tween-80 107 % of control

O=C(Nc1cccc(C(F)(F)F)c1)Oc1ccc(Cl)cc1Cc1ccccc1
inactive: dose: 100.0 mg/kg/injection, schedule: Q01DX009 (ip), vehicle: saline with Tween-80 98 % of control | dose: 200.0 mg/kg/injection, schedule: Q01DX009 (ip), vehicle: saline with Tween-80 93 % of control | dose: 400.0 mg/kg/injection, schedule: Q01DX009 (ip), vehicle: saline with Tween-80 92 % of control

O=C(O)C(O)(c1ccccc1)C1CCCCC1 (stereo not given)
inactive: [7] 91 % of control | dose: 200.0 mg/kg/injection, schedule: Q04DX002 (ip), vehicle: saline with Tween-80 105 % of control | [8] 98 % of control

CC1(c2ccc(Cl)cc2)NC(=O)NC1=O (stereo not given)
inactive: [9] 97 % of control | [4] 101 % of control | [5] 94 % of control

CCCCCCCCCCCCSCCC(=O)O
inactive: [10] 98 % of control | [11] 95 % of control | [12] 93 % of control

CC(=O)Nc1cc2c(cc1[N+](=O)[O-])-c1ccc([N+](=O)[O-])cc1C2
inactive: [4] 95 % of control | dose: 100.0 mg/kg/injection, schedule: Q04DX003 (ip), vehicle: Klucel (hydroxypropylcellulose) (HPC) 93 % of control | [5] 89 % of control | dose: 200.0 mg/kg/injection, schedule: Q04DX003 (ip), vehicle: Klucel (hydroxypropylcellulose) (HPC) 91 % of control | [6] 94 % of control | dose: 400.0 mg/kg/injection, schedule: Q04DX003 (ip), vehicle: Klucel (hydroxypropylcellulose) (HPC) 94 % of control

N#CCCN(CCCN1CCOCC1)C(=S)Nc1cccc(C(F)(F)F)c1
inactive: [7] 92 % of control | [8] 100 % of control

CC(=O)c1ccc(CCCC2CCCC2)cc1
inactive: [13] 88 % of control | [14] 91 % of control | [15] 91 % of control

COC(OC)OC
inactive: dose: 100.0 mg/kg/injection, schedule: Q01DX009 (ip), vehicle: saline 104 % of control | [1] 100 % of control | dose: 200.0 mg/kg/injection, schedule: Q01DX009 (ip), vehicle: saline 101 % of control | [2] 105 % of control | dose: 400.0 mg/kg/injection, schedule: Q01DX009 (ip), vehicle: saline 100 % of control | [3] 105 % of control

O=C(CBr)NCCCCc1ccc(C(=O)O)cc1
inactive: dose: 10.0 mg/kg/injection, schedule: Q01DX001 (ip), vehicle: carboxymethylcellulose (CMC) 92 % of control | dose: 20.0 mg/kg/injection, schedule: Q01DX001 (ip), vehicle: carboxymethylcellulose (CMC) 100 % of control | dose: 40.0 mg/kg/injection, schedule: Q01DX001 (ip), vehicle: carboxymethylcellulose (CMC) 103 % of control

NNc1cc(Cl)ccc1Cl
inactive: [13] 96 % of control | [14] 96 % of control | [15] 100 % of control

NC1=NC(=O)NC1(c1ccccc1)c1ccccc1
inactive: dose: 50.0 mg/kg/injection, schedule: Q01DX001 (ip), vehicle: carboxymethylcellulose (CMC) 94 % of control | dose: 100.0 mg/kg/injection, schedule: Q01DX001 (ip), vehicle: carboxymethylcellulose (CMC) 100 % of control | dose: 200.0 mg/kg/injection, schedule: Q01DX001 (ip), vehicle: carboxymethylcellulose (CMC) 89 % of control | dose: 400.0 mg/kg/injection, schedule: Q01DX001 (ip), vehicle: carboxymethylcellulose (CMC) 116 % of control

CC1=CC(c2ccccc2O)C(=C(C)C)CC1 (stereo not given)
inactive: [9] 96 % of control | [4] 93 % of control | [5] 89 % of control

CC(C)(C(N)=O)c1ccccc1
inactive: dose: 50.0 mg/kg/injection, schedule: Q01DX001 (ip), vehicle: saline 106 % of control | [10] 103 % of control | [11] 103 % of control | [12] 100 % of control

COC1C(COC(C)=O)OC(n2cnc3c(=O)[nH]cnc32)C1OC(C)=O (stereo not given)
inactive: [10] 112 % of control | [11] 108 % of control | [12] 103 % of control

O=C(NCCCl)NCC1CCCCO1 (stereo not given)
inactive: dose: 100.0 mg/kg/injection, schedule: Q01DX001 (ip), vehicle: Klucel (hydroxypropylcellulose) (HPC) 100 % of control | [4] 108 % of control | dose: 200.0 mg/kg/injection, schedule: Q01DX001 (ip), vehicle: Klucel (hydroxypropylcellulose) (HPC) 98 % of control | [5] 108 % of control | dose: 400.0 mg/kg/injection, schedule: Q01DX001 (ip), vehicle: Klucel (hydroxypropylcellulose) (HPC) 86 % of control | [6] 101 % of control

Cc1ccon1
inactive: [10] 102 % of control | [11] 100 % of control | [12] 96 % of control

ClCCOCCOc1ccc(Cl)cc1
inactive: dose: 100.0 mg/kg/injection, schedule: Q04DX003 (ip), vehicle: acetone 98 % of control | dose: 200.0 mg/kg/injection, schedule: Q04DX003 (ip), vehicle: acetone 98 % of control | dose: 400.0 mg/kg/injection, schedule: Q04DX003 (ip), vehicle: acetone 91 % of control
